In BindingDB's records for doi:10.1111/j.1432-1033.1994.00489.x (Universit&Eacute, 1994) one finds Ki data, which are given here for two compounds.

The test deals with Histamine H1 receptor (Cavia porcellus, UniProt P31389).

Each structure is given as a SMILES string.

Chain of Histamine H1 receptor (P31389 whole entry): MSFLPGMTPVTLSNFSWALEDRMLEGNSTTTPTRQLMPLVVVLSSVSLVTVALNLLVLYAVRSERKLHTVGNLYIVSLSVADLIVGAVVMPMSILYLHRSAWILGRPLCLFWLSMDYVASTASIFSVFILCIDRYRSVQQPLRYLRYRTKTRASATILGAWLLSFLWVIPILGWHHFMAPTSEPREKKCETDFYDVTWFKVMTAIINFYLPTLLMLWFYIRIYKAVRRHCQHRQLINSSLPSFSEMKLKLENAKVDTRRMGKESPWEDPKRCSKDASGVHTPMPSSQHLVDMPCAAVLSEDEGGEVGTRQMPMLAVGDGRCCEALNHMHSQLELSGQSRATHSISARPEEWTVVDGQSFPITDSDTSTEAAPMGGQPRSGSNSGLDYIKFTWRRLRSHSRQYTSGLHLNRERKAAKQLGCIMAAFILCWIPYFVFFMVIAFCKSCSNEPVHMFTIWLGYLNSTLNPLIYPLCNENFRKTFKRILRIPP

With `O=C(O)COCCN1CCN(C(c2ccccc2)c2ccc(Cl)cc2)CC1` (configuration not stated), the affinity, expressed as Ki, was 12.6 nM. Under `Cc1ccc(/C(=C\CN2CCCC2)c2ccccn2)cc1` [Actahist] stands 0.31 nM.
